# B1: RANTES: β-chemokine used as chemoattractant stimulus (protein, UniProt P13501 24-91, looked up)
# C-C motif chemokine 5: SPYSSDTTPCCFAYIARPLPRAHIKEYFYTSGKCSNPAVVFVTRKNRQVCANPEKKWVREYINSLEMS
# Experiments:
# CXCR4 chemokine receptor = target: T1, CXCR4 chemokine receptor (Homo sapiens, UniProt P61073); test: Competition with 44716.111 mAb binding to CXCR4 on human monocytes (FACS); details: human monocytes pre-incubated 15 min at 4° C. with 125 nM SDF-1α or 200 μM NSC 651016
# T1 construct: Human monocytes, which express the CXCR4 chemokine receptor; endogenous in cells; host or cells: human monocytes
# T1 sequence (P61073 whole entry): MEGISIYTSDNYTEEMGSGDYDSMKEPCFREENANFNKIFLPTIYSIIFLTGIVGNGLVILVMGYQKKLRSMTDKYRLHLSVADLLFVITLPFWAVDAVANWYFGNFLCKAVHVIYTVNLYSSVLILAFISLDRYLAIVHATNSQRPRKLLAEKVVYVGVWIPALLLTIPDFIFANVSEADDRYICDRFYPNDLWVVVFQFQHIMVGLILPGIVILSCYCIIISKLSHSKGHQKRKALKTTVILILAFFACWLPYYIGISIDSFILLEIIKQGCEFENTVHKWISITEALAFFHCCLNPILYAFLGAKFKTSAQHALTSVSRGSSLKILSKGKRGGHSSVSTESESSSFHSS
# Protocol: Competition assays were performed with the 44716.111 mouse monoclonal antibody (mAb), which binds to the extracellular domain of the CXCR4 chemokine receptor. Human monocytes, which express the CXCR4 chemokine receptor, were pre-incubated with either 125 nM of SDF-1α or 200 μM NSC 651016 for 15 min at 4° C. Control monocyte cells were placed at 4° C. for 15 min. The cells were then incubated with the 44716.111 mAb for an additional 30 min. The presence of the 44716.111 mAb was detected by incubating the cells with FITC-conjugated anti-murine antibody and subjecting the cells to FACS Analysis.
# Murine spleen cells = test: Chemotaxis of non-adherent murine spleen cells in vitro; assay type: cell-based; details: 10 ng/ml RANTES alone; media alone = 1
# Protocol: Murine spleen cells were “panned” on plastic to remove the adherent cells. The recovered cells were incubated for 30 minutes at 37° C. with one of the following: NSC 651015, NSC 651016, NSC 662162, and NSC 680651. […] In assays similarly performed using either the MIP-1α or the SDF-1α chemokine rather than RANTES, chemotactic inhibition was also observed in the presence of formula I compounds.
molecule,measurement,setting,value
SDF-1α,44716.111 antibody binding to the CXCR4 receptor,CXCR4 chemokine receptor,decrease in 44716.111 antibody binding
B1,chemotactic index,Murine spleen cells,2.3
